Eleven molecules from ChEMBL document CHEMBL1201862, “PubChem BioAssay data set” (2004) can be followed below.

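Grown in 96-well plates, cells were treated for 48 hours with each compound at five concentrations. Insufficient inhibition: endpoint recorded as highest concentration tested. GI50 is the concentration that inhibits growth by half.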 The source made the active and inactive calls. Rule as the data show it: active = GI50 up to about 1.1 µM and inactive = higher.

Some test systems named below: A549; CCRF-CEM; DU-145; HCC 2998; HL-60; M14; MOLT-4; Malme-3M; NCI-H522; OVCAR-3; OVCAR-4; SF-268; SF-295; SK-MEL-2; SNB-75; SR; UACC-62; UO-31; OVCAR-8; Hs-578T.
Assay in all cases: inhibition of tumour cell growth, NCI panel, 48 h

On to `CCCCCCCCCCCCCCCC(=O)OCC(O)C1OC(=O)C(O)=C1O` (stereo not given), for which the GI50 with A549 is 21.8 µM (inactive); in the test with CCRF-CEM, 23.7 µM (inactive); in the test on DU-145, > 100 µM (inactive); in the test on HCC 2998 it was > 100 µM (inactive); with HL-60, 29.5 µM (inactive); in the test on M14, 18.8 µM (inactive). The GI50 was 62.7 µM (inactive) in the test on MOLT-4; > 100 µM (inactive) in the test with Malme-3M; 34.4 µM (inactive) with NCI-H522; > 100 µM (inactive) with OVCAR-3; 52.8 µM (inactive) in the test on OVCAR-4; 26.4 µM (inactive) with SF-268. The GI50 with SF-295 is 20 µM (inactive); in the test with SK-MEL-2 it was 34.1 µM (inactive); with SNB-75, 16.1 µM (inactive); in the test with SR, 58.2 µM (inactive); in the test on UACC-62, 27.5 µM (inactive); with UO-31 it was 28.9 µM (inactive).
As for `COc1cc2c3c(c1OC)C(=O)C=C3N(S(=O)(=O)c1ccc(C)cc1)CC2`, the GI50 in the test with A549, with CCRF-CEM, with HCC 2998, with HL-60, in the test on M14 and with MOLT-4 was > 100 µM (inactive) in each case. Also, the GI50 was > 100 µM (inactive) with Malme-3M; 10.4 µM (inactive) in the test with NCI-H522; > 100 µM (inactive) in the test on OVCAR-3; 65.8 µM (inactive) with OVCAR-4; > 100 µM (inactive) in the test on OVCAR-8; > 100 µM (inactive) with SF-268. Besides, the GI50 in the test on SF-295 is 77.8 µM (inactive); in the test on SK-MEL-2 it was > 100 µM (inactive); with SNB-75 it was 46.9 µM (inactive); in the test with SR it was > 100 µM (inactive); in the test with UACC-62 it was > 100 µM (inactive); in the test on UO-31, > 100 µM (inactive).
As for `Cc1ccc(S(=O)(=O)ON/N=C2/C3OC3[C@@H]3CCCC[C@H]23)cc1` (stereo not given in full), the GI50 with A549 is > 100 µM (inactive); in the test on CCRF-CEM it was > 100 µM (inactive); in the test with HCC 2998, 71.4 µM (inactive); with HL-60, > 100 µM (inactive); with M14, > 100 µM (inactive); with MOLT-4, > 100 µM (inactive). Moreover, the GI50 was > 100 µM (inactive) in the test on Malme-3M; > 100 µM (inactive) in the test with NCI-H522; > 100 µM (inactive) in the test with OVCAR-3; > 100 µM (inactive) in the test on OVCAR-4; 0.507 µM (active) in the test on OVCAR-8; > 100 µM (inactive) with SF-268. For the same molecule, the GI50 with SF-295 was 1.19 µM (inactive); in the test with SK-MEL-2, > 100 µM (inactive); with SNB-75, > 100 µM (inactive); in the test on SR it was > 100 µM (inactive); with UACC-62, > 100 µM (inactive); in the test on UO-31 it was > 100 µM (inactive).
`C#CCSc1nc(N)c2ncn(C3OC(COP(=O)(O)O)C(O)C3O)c2n1` (stereo not given): the GI50 in the test with A549, in the test with CCRF-CEM, in the test on HCC 2998, in the test on HL-60, in the test with M14 and with MOLT-4 was > 239 µM (inactive) in each case. For the same molecule, the GI50 in the test on Malme-3M, in the test with NCI-H522, in the test on OVCAR-3, in the test with OVCAR-4, in the test with OVCAR-8 and with SF-268 was > 239 µM (inactive) throughout. The GI50 in the test on SF-295, in the test with SK-MEL-2, in the test with SNB-75, in the test on SR, in the test with UACC-62 and with UO-31 was > 239 µM (inactive) throughout.
In the case of `Cc1cc(S(=O)(=O)O)c(NC(=O)c2oc3cc(O)ccc3c(=O)c2C)cc1Cl`, the GI50 in the test with A549, in the test on HCC 2998, with Hs-578T, in the test with M14, in the test with MOLT-4 and in the test on Malme-3M was > 100 µM (inactive) in each case. In addition, the GI50 in the test on NCI-H522, with OVCAR-3, in the test with OVCAR-4, with OVCAR-8, in the test on SF-268 and in the test with SF-295 was > 100 µM (inactive) each time. Moreover, the GI50 in the test on SK-MEL-2 was > 100 µM (inactive); in the test with SNB-75, > 100 µM (inactive); in the test with SR, > 10 µM (inactive); with UACC-62, > 100 µM (inactive); in the test with UO-31 it was > 100 µM (inactive).
On to `CCOC(=O)C1=C(O)C(=O)c2cc(OC)ccc2C1=O`, for which the GI50 with A549 is 96.2 µM (inactive); with CCRF-CEM it was > 100 µM (inactive); with HCC 2998, > 100 µM (inactive); with HL-60, > 100 µM (inactive); with M14 it was > 100 µM (inactive); with MOLT-4, > 100 µM (inactive). Also, the GI50 was > 100 µM (inactive) in the test with Malme-3M; 55.7 µM (inactive) with NCI-H522; > 100 µM (inactive) in the test on OVCAR-3; > 100 µM (inactive) in the test on OVCAR-4; > 100 µM (inactive) in the test with OVCAR-8; > 100 µM (inactive) with SF-268. Also, the GI50 with SF-295 was 84.9 µM (inactive); in the test on SK-MEL-2, > 100 µM (inactive); in the test on SNB-75 it was 20.9 µM (inactive); in the test on SR, > 100 µM (inactive); in the test on UACC-62 it was > 100 µM (inactive); in the test with UO-31, 63 µM (inactive).
As to `O=C(O)C12CCC(CC1=O)C2` (stereo not given), the GI50 in the test on A549, with CCRF-CEM, in the test with HL-60, with Hs-578T, in the test on M14 and with MOLT-4 was > 100 µM (inactive) throughout. For the same molecule, the GI50 with Malme-3M, in the test on NCI-H522, in the test with OVCAR-3, in the test with OVCAR-4, in the test on OVCAR-8 and in the test with SF-268 was > 100 µM (inactive) in each case. For the same molecule, the GI50 with SF-295, with SK-MEL-2, with SNB-75, with SR, with UACC-62 and with UO-31 was > 100 µM (inactive) throughout.
For the molecule `N#CC(C#N)=c1c2ccccc2c(=C(C#N)C#N)c2ccccc12`, the GI50 in the test on A549 was 31 µM (inactive); in the test with CCRF-CEM it was 7.46 µM (inactive); in the test on HL-60, 19.8 µM (inactive); in the test with Hs-578T, 20.8 µM (inactive); in the test with M14, 17.4 µM (inactive); in the test with MOLT-4, 7.76 µM (inactive). The GI50 was 16.3 µM (inactive) in the test on OVCAR-3; 20.1 µM (inactive) in the test on OVCAR-8; 22.9 µM (inactive) with SF-268; 17.1 µM (inactive) in the test on SK-MEL-2; 18.1 µM (inactive) with SNB-75; 13.2 µM (inactive) in the test with UACC-62.
On to `OCCCSc1ccccc1SCCCO`, for which the GI50 in the test on A549, in the test with CCRF-CEM, with DU-145, in the test with HCC 2998, in the test with HL-60 and with M14 was > 100 µM (inactive) in each case. Moreover, the GI50 in the test with MOLT-4, in the test on NCI-H522, in the test with OVCAR-3, in the test on OVCAR-4, in the test on OVCAR-8 and in the test on SF-268 was > 100 µM (inactive) each time. Moreover, the GI50 is > 100 µM (inactive) with SF-295; 17.2 µM (inactive) in the test with SNB-75; > 100 µM (inactive) with SR; > 100 µM (inactive) in the test with UACC-62; > 100 µM (inactive) in the test on UO-31.
Consider `CC(C)N(C(=O)C12C3C4C1C1C4(C#N)C3C12C(=O)O)C(C)C` (stereo not given), for which the GI50 was 97.9 µM (inactive) in the test on A549; > 48.4 µM (inactive) in the test with CCRF-CEM; > 100 µM (inactive) in the test with HCC 2998; > 45.5 µM (inactive) in the test on HL-60; > 100 µM (inactive) with M14; > 100 µM (inactive) in the test on MOLT-4. Moreover, the GI50 in the test on Malme-3M is > 100 µM (inactive); in the test on NCI-H522, > 69.3 µM (inactive); with OVCAR-3 it was > 100 µM (inactive); in the test on OVCAR-4 it was > 100 µM (inactive); in the test on OVCAR-8 it was > 86.9 µM (inactive); in the test on SF-268, > 100 µM (inactive). Besides, the GI50 with SF-295 is > 100 µM (inactive); in the test with SK-MEL-2, > 100 µM (inactive); with SNB-75, > 100 µM (inactive); in the test with SR it was 16.8 µM (inactive); in the test with UACC-62, > 100 µM (inactive); with UO-31, > 100 µM (inactive).
As for `C[C@H]1[C@H](C)CC[C@]2(C(=O)O)CCC3(COC(=O)/C=C/c4ccc(O)cc4)C(=CCC4[C@@]5(C)CC[C@H](O)C(C)(C)C5CC[C@]43C)[C@H]12` (stereo not given in full), the GI50 with A549 is 2.61 µM (inactive); in the test with CCRF-CEM, 3.84 µM (inactive); in the test on HCC 2998, 5.45 µM (inactive); with HL-60, 7.96 µM (inactive); in the test on M14, 11.2 µM (inactive); in the test on MOLT-4, 3.52 µM (inactive). The GI50 with Malme-3M was 19.3 µM (inactive); with NCI-H522 it was 3.78 µM (inactive); with OVCAR-3 it was 4.8 µM (inactive); in the test on OVCAR-4, 5.96 µM (inactive); in the test on OVCAR-8 it was 4.51 µM (inactive); in the test with SF-268 it was 4.67 µM (inactive). Besides, the GI50 is 3.72 µM (inactive) with SF-295; 19.1 µM (inactive) in the test with SK-MEL-2; 10.2 µM (inactive) with SNB-75; 3.91 µM (inactive) in the test on SR; 9.4 µM (inactive) with UACC-62; 4.82 µM (inactive) in the test with UO-31.
